Results published in paper PMC5078989, “Targeted inhibition of the COP9 signalosome for treatment of cancer” (Nature Communications, 2016).

Key:
SU-DHL-1 xenografts = experiment: Immunoblotting for Cul1 and Skp2 of tumours excised at end of treatment; type: in vivo, SCID-bg mice; conditions: tumours excised at the end of the study
Method: (a) SU-DHL-1 xenografts were grown in SCID-bg mice and dosed by oral administration with either vehicle control or CSN5i-3 at the indicated doses and schedules. Mean tumour volumes are shown±s.e.m. (n=4; P<0.05). (b) Immunoblotting for Cul1 and Skp2 of tumours excised at the end of treatment. (c) Pharmacokinetics of CSN5i-3 post second to last dose. Mean blood concentrations are shown±s.e.m. (n=4). […] Cells from longer compound incubations were also lysed in RIPA buffer, which allows the protein concentration to be determined by BCA Protein Assay Kit (Pierce). Proteins were separated by SDS-PAGE using 4-20% Tris-Glycine Gels (Invitrogen) and subsequently transferred to polyvinylidene difluoride membranes using a Trans-Blot Turbo System (BioRad). […] Cul1 (1:500; #718700), Cul2 (1:250; #7001792), Rbx1 (1:300; #342500) (Invitrogen); Fbxw7 (1:300; # 55290-1-AP), Fbxo22 (1:500; #13606-1-AP) (Proteintech); Cul3 (1:1,000; # […]), CSN5 (1:2,000; #[…]) (Bethyl Laboratories); Fbxo3 (1:300; #AP9195) (Abgent); p21 (1:500; #556431) (BD Biosciences); Fbxo30 (1:500; # H00084085-B01) (Abnova); β-Actin (1:5,000; #A5441) (Sigma-Aldrich); Fbxo7 (1:500; #PA527589) (Pierce). Horseradish peroxidase-conjugated secondary antibodies (1:3,000) were purchased from Promega AG and bound antibody was detected by enhanced chemiluminescence (Pierce). […]

human MMP1 = molecular target: T1, human MMP1 (Homo sapiens, UniProt P03956); experiment: Selectivity assay MMP1; type: biochemical
T1 construct: Human MMP1 (Uniprot P03956), amino acids 1–469; made in house; host or cells: stably transfected C127 cells
T1 sequence (P03956 20-469): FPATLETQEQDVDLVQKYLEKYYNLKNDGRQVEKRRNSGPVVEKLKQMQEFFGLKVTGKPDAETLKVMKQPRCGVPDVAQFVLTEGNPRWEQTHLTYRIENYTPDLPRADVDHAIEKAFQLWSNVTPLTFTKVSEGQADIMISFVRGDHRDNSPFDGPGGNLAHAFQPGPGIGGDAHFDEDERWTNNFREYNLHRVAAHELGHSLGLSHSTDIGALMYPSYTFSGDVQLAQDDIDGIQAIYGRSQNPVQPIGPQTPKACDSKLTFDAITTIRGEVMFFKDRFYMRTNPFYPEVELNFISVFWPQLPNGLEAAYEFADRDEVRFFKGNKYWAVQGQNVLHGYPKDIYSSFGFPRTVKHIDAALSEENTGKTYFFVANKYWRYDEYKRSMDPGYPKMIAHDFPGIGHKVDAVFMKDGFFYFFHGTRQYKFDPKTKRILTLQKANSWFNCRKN
Method: All biochemical assays were performed at room temperature in 384-well plates in a total volume of 25.25 μl per well. Test compounds were dissolved in 90% (v/v) DMSO/water. For the assays, 250 nl of compound solution was added per well, followed by addition of 12.5 μl protease solution. After 70 min of pre-incubation at room temperature, the reactions were started by addition of 12.5 μl substrate solution and followed either by measuring fluorescence intensity (rhodamine 110-based substrates) or by fluorescence lifetime (PT14-based substrates). The effect of compound on enzymatic activity was obtained from the linear part of the progress curves and determined after 1 h (t=60 min). The final compound concentrations ranged from 100 μM to 1 nM.
Matrix metalloproteinases. […]

CC(C)n1nc(C(F)F)cc1C(=O)Nc1ccc([C@H]2[C@@H](O)CCCc3cncn32)c(-c2ccccc2)c1 [CSN5i-3, 3-(Difluoromethyl)-N-(6-((5S,6S)-6-hydroxy-6,7,8,9-tetrahydro-5H-imidazo[1,5-a]azepin-5-yl)-[1,1′-biphenyl]-3-yl)-1-isopropyl-1H-pyrazole-5-carboxamide]
Cul1 deneddylation in tumours (SU-DHL-1 xenografts): inhibited | Skp2 levels in tumours (SU-DHL-1 xenografts): reduced | IC50 (human MMP1): > 100 µM
